Results taken from patent US8129371B2, “Thienopyrimidine and pyrazolopyrimidine compounds and their use as mTOR kinase and PI3 kinase inhibitors” (Wyeth LLC, priority 2007, dated 2012).
Like-named read-outs stand apart in the source and are kept apart here.

Tests used:
Human mTOR (FLAG-TOR) = molecular target: T1, Human mTOR (FLAG-TOR) (Homo sapiens, UniProt P42345); assay: Human mTOR kinase assay with purified enzyme, DELFIA format; format: biochemical
T1 construct: FLAG
Procedure: Enzymes are first diluted in kinase assay buffer (10 mM HEPES (pH 7.4), 50 mM NaCl, 50 mM β-glycerophosphate, 10 mM MnCl2, 0.5 mM DTT, 0.25 mM microcystin LR, and 100 mg/mL BSA). To each well, 12 μL of the diluted enzyme is mixed briefly with 0.5 μL test inhibitor or control vehicle dimethylsulfoxide (DMSO). […] The reaction plate is incubated for 2 hours (linear at 1-6 hours) at room temperature with gentle shaking and then terminated by adding 25 μL Stop buffer (20 mM HEPES (pH 7.4), 20 mM EDTA, 20 mM EGTA). […] The DELFIA Assay buffer and Enhancement solution can be purchased from PerkinElmer. 45 μL of the terminated kinase reaction mixture is transferred to a MaxiSorp plate (Nunc) containing 55 μL PBS. The His6-S6K is allowed to attach for 2 hours after which the wells are aspirated and washed once with PBS. 100 μL of DELFIA Assay buffer with 40 ng/mL Eu—P(T389)-S6K antibody is added. The antibody binding is continued for 1 hour with gentle agitation. The wells are then aspirated and washed 4 times with PBS containing 0.05% Tween-20 (PBST). 100 μL of DELFIA Enhancement solution is added to each well and the plates are read in a PerkinElmer Victor model plate reader. Data obtained is used to calculate enzymatic activity and enzyme inhibition by potential inhibitors.

PI3K [1] = molecular target: T2, PI3K (Homo sapiens, UniProt P42336); assay: Fluorescence polarization assay for PI3K; format: biochemical; conditions: read-out: PI3 Kinase α IC50
T2 construct: PI3 Kinase α IC50; other: PI3 Kinase α; other: PI3 Kinase α isoform, fluorescence polarization
T2 sequence (P42336 whole entry, canonical isoform): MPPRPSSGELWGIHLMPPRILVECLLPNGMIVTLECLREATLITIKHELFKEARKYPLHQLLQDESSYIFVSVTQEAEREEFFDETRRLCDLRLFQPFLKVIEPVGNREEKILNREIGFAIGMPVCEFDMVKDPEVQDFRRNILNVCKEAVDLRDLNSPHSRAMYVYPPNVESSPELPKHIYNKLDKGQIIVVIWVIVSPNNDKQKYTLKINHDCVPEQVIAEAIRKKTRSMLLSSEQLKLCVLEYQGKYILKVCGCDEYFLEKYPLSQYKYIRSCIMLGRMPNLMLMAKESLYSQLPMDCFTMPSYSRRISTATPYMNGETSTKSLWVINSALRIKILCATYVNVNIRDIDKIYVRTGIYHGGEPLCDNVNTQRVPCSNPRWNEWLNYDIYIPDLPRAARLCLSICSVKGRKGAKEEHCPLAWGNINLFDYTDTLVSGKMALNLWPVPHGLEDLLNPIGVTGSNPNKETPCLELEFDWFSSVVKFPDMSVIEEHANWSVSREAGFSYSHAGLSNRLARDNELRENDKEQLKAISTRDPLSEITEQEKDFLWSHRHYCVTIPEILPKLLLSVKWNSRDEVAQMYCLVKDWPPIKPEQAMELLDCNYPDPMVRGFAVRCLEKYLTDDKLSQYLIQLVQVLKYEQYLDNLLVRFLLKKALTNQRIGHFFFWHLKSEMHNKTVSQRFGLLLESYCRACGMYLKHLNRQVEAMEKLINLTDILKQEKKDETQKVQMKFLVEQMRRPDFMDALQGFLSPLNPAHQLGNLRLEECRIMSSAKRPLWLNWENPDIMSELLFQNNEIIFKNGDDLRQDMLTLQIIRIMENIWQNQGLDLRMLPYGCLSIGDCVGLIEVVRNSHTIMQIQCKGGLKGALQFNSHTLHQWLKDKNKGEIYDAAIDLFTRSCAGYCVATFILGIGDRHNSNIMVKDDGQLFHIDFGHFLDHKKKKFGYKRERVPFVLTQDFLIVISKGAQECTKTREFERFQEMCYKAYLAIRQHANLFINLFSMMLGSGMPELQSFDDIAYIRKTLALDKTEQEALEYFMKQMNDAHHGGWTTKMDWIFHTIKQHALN
Procedure: (§1) This assay is used to determine the IC50 of compounds of the present invention as it identifies inhibitors of PI3 kinase by measuring inhibition.
(§2) The assay is run by placing 5 μL of diluted enzyme per well, then 5 μL of diluted compound (or 9.5 μL enzyme then 0.5 μL compound in DMSO) is added and mixed. Then, 10 μL substrate is added to start the reaction. The samples are incubated 30-60 minutes, then the reaction is stopped by adding 20 μL stop/detector mix. PI3K is diluted with reaction buffer (e.g., 5 μL or 7.5 μL PI3K into 620 μL reaction buffer), and 5 μL of diluted enzyme is used per well. 5 μL reaction buffer or drug diluted in buffer (e.g., 4 μL/100 so final DMSO is 1% in reaction) is added to each. Pipetting up and down mixes the samples. Alternatively, the enzyme can be diluted to 1215 μL. In this case 9.8 μL is added per well and 0.2 μL compound is added in DMSO. To prepare 1 mL of substrate solution, 955 μL reaction buffer, 40 μL PIP2, and 2.5 μL ATP are mixed. 10 μL of substrate is added to each well to start the reaction.
(§3) Stop/detector mix is prepared by mixing 4 μL Red detector and 1.6 μL or 2.0 μL GST-GRP with 1 mL Stop buffer, which results in 10 nM probe and 70 nM GST-GRP). 20 μL of the stop/detector mix is added to each well to stop the reaction. The plates are read after 30-90 minutes keeping the red probe solutions dark. For the zero time point, stop/detector mix is added to the enzyme just before adding substrate. For an extra control, stop/detector mix is added to buffer (no enzyme) and substrate or to just buffer (no substrate). […] Plates are read on machines with filters for Tamra. The units are mP with no enzyme controls reading app 190-220 mP units. Fully active enzyme reduces fluorescence polarization down to 70-100 mP after 30 minutes.

PI3K [2] = molecular target: T3, PI3K (Homo sapiens, UniProt P48736); assay: Fluorescence polarization assay for PI3K; format: biochemical; conditions: read-out: PI3 Kinase γ IC50
T3 construct: PI3 Kinase γ IC50; other: PI3 Kinase γ; other: PI3 Kinase γ isoform, fluorescence polarization
T3 sequence (P48736 whole entry, canonical isoform): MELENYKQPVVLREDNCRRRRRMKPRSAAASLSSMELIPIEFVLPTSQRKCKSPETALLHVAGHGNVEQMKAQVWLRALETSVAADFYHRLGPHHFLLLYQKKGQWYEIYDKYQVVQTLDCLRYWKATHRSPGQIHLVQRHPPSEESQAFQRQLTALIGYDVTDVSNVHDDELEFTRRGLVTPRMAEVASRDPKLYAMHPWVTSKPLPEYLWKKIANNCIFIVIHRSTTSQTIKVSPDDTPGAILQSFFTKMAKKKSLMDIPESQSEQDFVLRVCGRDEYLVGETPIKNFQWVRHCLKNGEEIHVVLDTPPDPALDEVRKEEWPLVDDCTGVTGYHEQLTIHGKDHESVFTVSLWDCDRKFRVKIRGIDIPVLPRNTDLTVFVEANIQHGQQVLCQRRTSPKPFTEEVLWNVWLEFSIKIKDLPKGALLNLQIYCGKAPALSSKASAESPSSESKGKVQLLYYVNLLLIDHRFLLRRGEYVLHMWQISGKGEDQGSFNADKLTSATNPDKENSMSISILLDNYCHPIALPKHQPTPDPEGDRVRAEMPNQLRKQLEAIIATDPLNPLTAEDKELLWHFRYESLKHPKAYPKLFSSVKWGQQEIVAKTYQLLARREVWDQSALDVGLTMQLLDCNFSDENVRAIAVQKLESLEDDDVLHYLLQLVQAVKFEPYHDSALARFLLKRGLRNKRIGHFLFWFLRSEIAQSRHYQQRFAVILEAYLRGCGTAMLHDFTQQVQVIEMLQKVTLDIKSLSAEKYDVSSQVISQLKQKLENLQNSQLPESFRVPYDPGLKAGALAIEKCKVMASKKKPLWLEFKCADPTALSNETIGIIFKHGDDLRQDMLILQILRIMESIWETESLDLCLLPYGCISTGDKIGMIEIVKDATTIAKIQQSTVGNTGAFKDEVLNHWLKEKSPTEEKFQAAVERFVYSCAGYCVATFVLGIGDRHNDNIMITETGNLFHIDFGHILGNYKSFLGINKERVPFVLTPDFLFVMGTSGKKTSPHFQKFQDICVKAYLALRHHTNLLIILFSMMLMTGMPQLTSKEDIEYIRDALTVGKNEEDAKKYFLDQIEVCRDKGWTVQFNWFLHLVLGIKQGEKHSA
Procedure: as §1, §2, §3

prostate line LNCap = assay: In vitro cell culture growth assay (MTS), LNCap; format: cell-based; conditions: Homo sapiens, LNCaP, 72 h, LNCap cells, three days after drug treatment
Procedure: (§4) Human tumor cell lines used include prostate lines LNCap and PC3MM2, breast lines MDA468, MCF7, renal line HTB44 (A498), colon line HCT116, and ovarian line OVCAR3. Cells were plated in 96-well culture plates. One day following plating, the inhibitors were added to cells. Three days after drug treatment, viable cell densities were determined by metabolic conversion (by viable cells) of the dye MTS, a well-established cell proliferation assay. The assays were performed using an assay kit purchased from Promega Corp. (Madison, Wis.) following the protocol supplied with the kit. The MTS assay results were read in a 96-well plate reader by measuring absorbance at 490 nm. The effect of each treatment was calculated as percent of control growth relative to the vehicle-treated cells grown in the same culture plate.

breast line MDA468 = assay: In vitro cell culture growth assay (MTS), MDA468; format: cell-based; conditions: Homo sapiens, 72 h, MDA468 cells, three days after drug treatment
Procedure: as §4

[3] = purified human mTOR enzyme, DELFIA format
[4] = PI3 Kinase α isoform, fluorescence polarization
[5] = PI3 Kinase γ isoform, fluorescence polarization

SMILES | IC50 (Human mTOR (FLAG-TOR); [3]) | IC50 (PI3K [1]; [4]) | IC50 (PI3K [2]; [5]) | IC50 (prostate line LNCap) | IC50 (breast line MDA468) | IC50 (Human mTOR (FLAG-TOR)) | IC50 (PI3K [1]; PI3 Kinase α) | IC50 (PI3K [2]; PI3 Kinase γ)
O=C(Nc1ccc(-c2nc(N3CC4CCC(C3)O4)c3cnn([C@H]4CC[C@H](O)CC4)c3n2)cc1)NC1CC1 (relative stereo) [Example 403, 1-cyclopropyl-3-{4-[1-(trans-4-hydroxycyclohexyl)-4-(8-oxa-3-azabicyclo[3.2.1]oct-3-yl)-1H-pyrazolo[3,4-d]pyrimidin-6-yl]phenyl}urea] | 0.4 nM | 3630 nM | > 10000 nM | 5 nM | 180 nM |  |  | 
CN1CCN(c2ccc(NC(=O)Nc3ccc(-c4nc(N5CC6CCC(C5)O6)c5cnn([C@H]6CC[C@H](O)CC6)c5n4)cc3)cc2)CC1 (relative stereo) [Example 404, 1-{4-[1-(trans-4-hydroxycyclohexyl)-4-(8-oxa-3-azabicyclo[3.2.1]oct-3-yl)-1H-pyrazolo[3,4-d]pyrimidin-6-yl]phenyl}-3-[4-(4-methylpiperazin-1-yl)phenyl]urea] | 0.19 nM | 93 nM | 1140 nM | < 1 nM | 18 nM |  |  | 
CN1CCN(c2ccc(NC(=O)Nc3ccc(-c4nc(N5CC6CCC(C5)O6)c5cnn([C@H]6CC[C@@H](O)CC6)c5n4)cc3)cc2)CC1 (relative stereo) [Example 405, 1-{4-[1-(cis-4-hydroxycyclohexyl)-4-(8-oxa-3-azabicyclo[3.2.1]oct-3-yl)-1H-pyrazolo[3,4-d]pyrimidin-6-yl]phenyl}-3-[4-(4-methylpiperazin-1-yl)phenyl]urea] | 0.33 nM | 107 nM | 1360 nM | < 1 nM | 20 nM |  |  | 
O=C(Nc1ccncc1)Nc1ccc(-c2nc(N3CC4CCC(C3)O4)c3cnn(C4CCC5(CCCO5)CC4)c3n2)cc1 (single isomer, unassigned) [Example 312, 1-(4-{4-(8-oxa-3-azabicyclo[3.2.1]oct-3-yl)-1-[(5r,8r)-1-oxaspiro[4.5]dec-8-yl]-1H-pyrazolo[3,4-d]pyrimidin-6-yl}phenyl)-3-pyridin-4-ylurea] | 0.203 nM | 353 nM | 2220 nM | 1 nM | 12 nM |  |  | 
CN1CCN(c2ccc(NC(=O)Nc3ccc(-c4nc(N5CC6CCC(C5)O6)c5cnn(C6CCC7(CCCO7)CC6)c5n4)cc3)cc2)CC1 (single isomer, unassigned) [Example 313, 1-[4-(4-methylpiperazin-1-yl)phenyl]-3-(4-{4-(8-oxa-3-azabicyclo[3.2.1]oct-3-yl)-1-[(5r,8r)-1-oxaspiro[4.5]dec-8-yl]-1H-pyrazolo[3,4-d]pyrimidin-6-yl}phenyl)urea] | 0.365 nM | 581 nM | 1450 nM | 1 nM | 15 nM |  |  | 
O=C(Nc1ccc(-c2nc(N3CC4CCC(C3)O4)c3cnn(C4CCC5(CCCO5)CC4)c3n2)cc1)Nc1ccc(N2CCNCC2)cc1 (single isomer, unassigned) [Example 314, 1-(4-{4-(8-oxa-3-azabicyclo[3.2.1]oct-3-yl)-1-[(5r,8r)-1-oxaspiro[4.5]dec-8-yl]-1H-pyrazolo[3,4-d]pyrimidin-6-yl}phenyl)-3-(4-piperazin-1-ylphenyl)urea] | 0.455 nM | 511 nM | 2020 nM | 1 nM | 15 nM |  |  | 
O=C(Nc1ccc(-c2nc(N3CC4CCC(C3)O4)c3cnn(C4CCC5(CCCO5)CC4)c3n2)cc1)OCCO (single isomer, unassigned) [Example 315, 2-hydroxyethyl (4-{4-(8-oxa-3-azabicyclo[3.2.1]oct-3-yl)-1-[(5r,8r)-1-oxaspiro[4.5]dec-8-yl]-1H-pyrazolo[3,4-d]pyrimidin-6-yl}phenyl)carbamate] | 0.8 nM | 5600 nM | 2060 nM | 10 nM | 220 nM |  |  | 
O=C(Nc1ccc(-c2nc(N3CC4CCC(C3)O4)c3cnn(C4CCC5(CCCO5)CC4)c3n2)cc1)NC1CC1 (single isomer, unassigned) [Example 316, 1-cyclopropyl-3-(4-{4-(8-oxa-3-azabicyclo[3.2.1]oct-3-yl)-1-[(5r,8r)-1-oxaspiro[4.5]dec-8-yl]-1H-pyrazolo[3,4-d]pyrimidin-6-yl}phenyl)urea] | 0.495 nM | 4560 nM | > 10000 nM | 7 nM | 160 nM |  |  | 
CNC(=O)Nc1ccc(-c2nc(N3CC4CCC(C3)O4)c3cnn(C4CCC5(CCCO5)CC4)c3n2)cc1 (single isomer, unassigned) [Example 389, 1-methyl-3-(4-{4-(8-oxa-3-azabicyclo[3.2.1]oct-3-yl)-1-[(5r,8r)-1-oxaspiro[4.5]dec-8-yl]-1H-pyrazolo[3,4-d]pyrimidin-6-yl}phenyl)urea] | 0.285 nM | 909 nM | > 10000 nM | 2 nM | 17 nM |  |  | 
CNC(=O)Nc1ccc(-c2nc(N3CC4CCC(C3)O4)c3cnn(CC(F)(F)F)c3n2)cc1 [Example 1, 1-methyl-3-{4-[4-(8-oxa-3-azabicyclo[3.2.1]oct-3-yl)-1-(2,2,2-trifluoroethyl)-1H-pyrazolo[3,4-d]pyrimidin-6-yl]phenyl}urea] |  |  |  | 38 nM | 46 nM | 0.63 nM | 1620 nM | > 10000 nM
COC(=O)Nc1ccc(-c2nc(N3CC4CCC(C3)O4)c3cnn(CC(F)(F)F)c3n2)cc1 [Example 2, methyl {4-[4-(8-oxa-3-azabicyclo[3.2.1]oct-3-yl)-1-(2,2,2-trifluoroethyl)-1H-pyrazolo[3,4-d]pyrimidin-6-yl]phenyl}carbamate] |  |  |  | 650 nM | 680 nM | 8 nM | > 10000 nM | > 10000 nM
CCNC(=O)Nc1ccc(-c2nc(N3CC4CCC(C3)O4)c3cnn(CC(F)(F)F)c3n2)cc1 [Example 3, 1-ethyl-3-{4-[4-(8-oxa-3-azabicyclo[3.2.1]oct-3-yl)-1-(2,2,2-trifluoroethyl)-1H-pyrazolo[3,4-d]pyrimidin-6-yl]phenyl}urea] |  |  |  | < 27 nM | < 27 nM | 0.38 nM | 3750 nM | > 10000 nM
O=C(Nc1ccc(-c2nc(N3CC4CCC(C3)O4)c3cnn(CC(F)(F)F)c3n2)cc1)Nc1cccnc1 [Example 4, 1-{4-[4-(8-oxa-3-azabicyclo[3.2.1]oct-3-yl)-1-(2,2,2-trifluoroethyl)-1H-pyrazolo[3,4-d]pyrimidin-6-yl]phenyl}-3-pyridin-3-ylurea] |  |  |  | < 27 nM | < 27 nM | 0.18 nM | 345 nM | 2140 nM
